ChEMBL document CHEMBL1142141, “Molecular mechanism of flucytosine resistance in Candida lusitaniae: contribution of the FCY2, FCY1, and FUR1 genes to 5-fluorouracil and fluconazole cross-resistance” (2007)
In brackets after ≈: the same amount, converted by molar mass.

How the values were obtained:
Assay type in all cases: functional
[1] = test system: Clavispora lusitaniae; experiment: Antifungal activity against Candida lusitaniae 6936 by microdilution assay
[2] = test system: Clavispora lusitaniae; experiment: Antifungal activity against Candida lusitaniae 6936 URA3[D95V] derived null mutant fcy2delta::URA3 by microdilution assay
[3] = test system: Clavispora lusitaniae; experiment: Antifungal activity against Candida lusitaniae 6936 URA3[D95V] derived null mutant fcy1delta::URA3 by microdilution assay
[4] = test system: Clavispora lusitaniae; experiment: Antifungal activity against Candida lusitaniae 6936 URA3[D95V] derived null mutant fur1delta::URA3 by microdilution assay
[5] = test system: Clavispora lusitaniae; experiment: Antifungal activity against Candida lusitaniae 6936 revertant fcy2delta::[FCY2-URA3] by microdilution assay
[6] = test system: Clavispora lusitaniae; experiment: Antifungal activity against Candida lusitaniae 6936 revertant fcy1delta::[FCY1-URA3] by microdilution assay

| SMILES | MIC [1] [µg/mL] | MIC [2] [µg/mL] | MIC [3] [µg/mL] | MIC [4] [µg/mL] | MIC [5] [µg/mL] | MIC [6] [µg/mL] |
| --- | --- | --- | --- | --- | --- | --- |
| OC(Cn1cncn1)(Cn1cncn1)c1ccc(F)cc1F [FLUCONAZOLE] | 2 (≈ 6.53 µM) | 2 (≈ 6.53 µM) | 2 (≈ 6.53 µM) | 2 (≈ 6.53 µM) | 2 (≈ 6.53 µM) | 2 (≈ 6.53 µM) |
| Nc1nc(=O)[nH]cc1F [FLUCYTOSINE] | ≤ 0.5 | 64 (≈ 496 µM) | 128 (≈ 992 µM) | ≥ 512 | ≤ 0.5 | ≤ 0.5 |
| O=c1[nH]cc(F)c(=O)[nH]1 [FLUOROURACIL] | ≤ 0.5 | ≤ 0.5 | ≤ 0.5 | ≥ 512 | ≤ 0.5 | ≤ 0.5 |
